Patent US8163756B2 (priority 2004, dated 2012)
Counter-ions that a name gives are not always drawn.

Columns and labels:
Format in all cases: biochemical
B-Raf(V599E) kinase [1] = target: T1, B-Raf(V599E) kinase (Homo sapiens, UniProt P15056, V600E); experiment: B-Raf(V599E) kinase assay B1 (construct 1, MEK1 substrate, coupled spectrophotometric)
Description: (§1) The test compounds were incubated with the reaction mixtureat 30° C. for 2 h. […] The reaction rate was calculated using the […] time frame. […] IC50 values were calculated from a series of percent inhibition values determined at a range of inhibitor concentrations using software routines as implemented in the GraphPad Prism software package.
Target sequence in this assay (P15056 with tags, fused parts or gaps V600E): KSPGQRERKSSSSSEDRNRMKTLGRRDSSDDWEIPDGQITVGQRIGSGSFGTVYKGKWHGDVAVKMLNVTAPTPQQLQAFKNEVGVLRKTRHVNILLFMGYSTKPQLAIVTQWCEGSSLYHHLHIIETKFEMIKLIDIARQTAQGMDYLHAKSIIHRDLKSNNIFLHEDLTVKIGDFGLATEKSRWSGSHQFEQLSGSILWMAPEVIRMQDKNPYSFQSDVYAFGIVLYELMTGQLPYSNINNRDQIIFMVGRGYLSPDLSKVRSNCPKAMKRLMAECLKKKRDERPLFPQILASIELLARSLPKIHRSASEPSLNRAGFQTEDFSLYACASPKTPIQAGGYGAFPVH

[2] = target: phosphorylated p-38-alpha kinase (Homo sapiens, UniProt Q16539); experiment: P-38 alpha kinase assay P1 (coupled spectrophotometric, 2 h pre-incubation); details: method P1 (2 h pre-incubation); read-out: P-38 Data
KDR kinase [3] = target: T2, KDR kinase (Homo sapiens, UniProt P35968, DEL940-989/E990V); experiment: KDR kinase assay K2 (as K1, 2.1 nM enzyme, 2 h pre-incubation, 1.0 mM ATP)
Description: (§2) IC50 values were calculated from a series of percent inhibition values determined at a range of inhibitor concentrations using software routines as implemented in the GraphPad Prism software package.

Abl kinase [4] = target: T3, Abl kinase (Homo sapiens, UniProt P00519); experiment: Abl kinase assay A2 (as A1, 1.1 nM enzyme, 2 h pre-incubation, 0.5 mM ATP)
T3 sequence (P00519 229-512): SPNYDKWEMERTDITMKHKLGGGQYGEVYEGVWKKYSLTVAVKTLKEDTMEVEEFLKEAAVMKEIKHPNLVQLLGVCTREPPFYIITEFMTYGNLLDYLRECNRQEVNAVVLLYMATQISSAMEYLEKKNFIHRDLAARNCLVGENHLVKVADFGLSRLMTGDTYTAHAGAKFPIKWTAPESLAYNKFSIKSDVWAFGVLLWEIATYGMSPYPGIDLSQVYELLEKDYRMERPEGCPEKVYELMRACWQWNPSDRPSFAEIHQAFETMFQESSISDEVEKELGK
Description: as §2

B-Raf(V599E) kinase [5] = target: T1, B-Raf(V599E) kinase; experiment: B-Raf(V599E) kinase assay B2 (construct 2 at 2 nM, 1 h pre-incubation)
Description: as §1
Target sequence in this assay (P15056 433-726 V600E): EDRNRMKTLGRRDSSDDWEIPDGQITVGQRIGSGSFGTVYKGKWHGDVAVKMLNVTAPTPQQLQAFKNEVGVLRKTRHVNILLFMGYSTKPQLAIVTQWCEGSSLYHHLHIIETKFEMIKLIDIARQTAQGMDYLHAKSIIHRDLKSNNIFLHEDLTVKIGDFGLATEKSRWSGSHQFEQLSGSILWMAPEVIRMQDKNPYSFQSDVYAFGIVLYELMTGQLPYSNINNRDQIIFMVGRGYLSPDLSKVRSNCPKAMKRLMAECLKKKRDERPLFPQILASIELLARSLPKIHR
Same as assay B1 except that (1) construct 2 was employed at a nominal concentration of 2 nM (2) the reaction was pre-incubated at 30° C. for 1 h prior to initiation with ATP (3) a reading time frame of 0.5 h to 1.5 h.

Abl kinase [6] = target: T3, Abl kinase; experiment: Abl kinase assay A1 (pyruvate kinase/lactate dehydrogenase coupled, spectrophotometric); details: Method A1; read-out: Abl Data (IC50)
Description: as §2

KDR kinase [7] = target: T2, KDR kinase; experiment: KDR kinase assay K1 (pyruvate kinase/lactate dehydrogenase coupled, spectrophotometric); details: Method K1; read-out: KDR Data (IC50)
Description: as §2

[8] = Method K2, read-out: KDR Data (IC50)
[9] = Method A2, read-out: Abl Data (IC50)

Chain of phosphorylated p-38-alpha kinase (Q16539 1-360 isoform Q16539-2): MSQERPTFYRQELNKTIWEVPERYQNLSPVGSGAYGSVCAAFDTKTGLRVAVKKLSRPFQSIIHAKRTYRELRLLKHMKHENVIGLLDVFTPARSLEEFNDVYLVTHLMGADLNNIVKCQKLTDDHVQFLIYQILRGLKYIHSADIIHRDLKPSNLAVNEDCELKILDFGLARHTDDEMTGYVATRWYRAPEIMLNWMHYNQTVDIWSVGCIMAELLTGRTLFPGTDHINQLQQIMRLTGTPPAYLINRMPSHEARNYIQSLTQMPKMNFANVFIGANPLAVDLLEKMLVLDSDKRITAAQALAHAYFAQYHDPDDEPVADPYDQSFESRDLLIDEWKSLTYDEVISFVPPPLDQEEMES
T2 sequence (P35968 with tags, fused parts or gaps DEL940-989/E990V): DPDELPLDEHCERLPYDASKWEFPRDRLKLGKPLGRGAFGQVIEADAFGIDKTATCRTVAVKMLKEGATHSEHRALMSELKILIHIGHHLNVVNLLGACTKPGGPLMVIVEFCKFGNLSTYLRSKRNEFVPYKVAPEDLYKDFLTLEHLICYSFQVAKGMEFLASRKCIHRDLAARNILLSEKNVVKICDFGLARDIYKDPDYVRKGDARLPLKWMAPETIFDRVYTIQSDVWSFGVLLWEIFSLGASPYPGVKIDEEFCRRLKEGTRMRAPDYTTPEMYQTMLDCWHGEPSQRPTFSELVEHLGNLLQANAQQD

CC(C)(C)c1cc(NC(=O)Nc2cccc(Oc3cccnc3)c2)n(-c2ccc3c(c2)CC(C(N)=O)NC3)n1 (stereo not drawn) [Example 179, 1-(3-t-butyl-1-(3-carbamoyl-1,2,3,4-tetrahydroisoquinolin-6-yl)-1H-pyrazol-5-yl)-3-(3-(pyridin-3-yloxy)phenyl)urea]
IC50 (B-Raf(V599E) kinase [1]): 17 nM
IC50 [2]: 96 nM
IC50 (KDR kinase [3]; [8]): 6.4 nM
IC50 (Abl kinase [4]; [9]): 3 nM

CNC(=O)c1cc(Oc2ccc(NC(=O)Nc3cc(C(C)(C)C)nn3-c3ccc4nc(NC)ccc4c3)cc2)ccn1 [Example 174, 1-(3-t-butyl-1-(2-(methylamino)quinolin-6-yl)-1H-pyrazol-5-yl)-3-(4-(2-(methylcarbamoyl)pyridin-4-yloxy)phenyl)urea]
IC50 (B-Raf(V599E) kinase [5]): 245 nM
IC50 (Abl kinase [4]; [9]): 1.8 nM

CC(C)(C)c1cc(NC(=O)Nc2cccc(Oc3cccnc3)c2)n(-c2cccc(-c3cccnc3)c2)n1 [Example 277, 1-(3-t-butyl-1-(3-(pyridin-3-yl)phenyl)-1H-pyrazol-5-yl)-3-(3-(pyridin-3-yloxy)phenyl)urea]
IC50 (B-Raf(V599E) kinase [1]): 11 nM
IC50 [2]: 180 nM
IC50 (KDR kinase [3]; [8]): 10 nM
IC50 (Abl kinase [4]; [9]): 29 nM

Cn1c(=O)c(-c2cccc(NC(=O)Nc3cc(C(C)(C)C)nn3-c3ccc4[nH]ccc4c3)c2)cc2cncnc21 [Example 118, 1-(3-t-butyl-1-(1H-indol-5-yl)-1H-pyrazol-5-yl)-3-(3-(8-methyl-7-oxo-7,8-dihydropyrido[2,3-d]pyrimidin-6-yl)phenyl)urea]
IC50 (B-Raf(V599E) kinase [5]): 23 nM
IC50 (Abl kinase [4]; [9]): 11 nM

CC(C)(C)c1cc(NC(=O)Nc2ccc(Cl)cc2)n(-c2cc(CNC(=O)NS(C)(=O)=O)c3ccccc3c2)n1 [Example 74, 1-{3-t-butyl-1-[1-(methanesulfonylureidoamidomethyl)naphthalen-3-yl]-1H-pyrazol-5-yl}-3-(4-chlorophenyl-1-yl)urea]
IC50 (KDR kinase [3]; [8]): 2500 nM
IC50 (B-Raf(V599E) kinase [5]): 934 nM
IC50 (Abl kinase [6]): 2100 nM

COc1cccc(-n2nc(C(C)(C)C)cc2NC(=O)Nc2cccc(F)c2F)c1 [Example 236, 1-[3-t-butyl-1-(3-methoxy-phenyl)-1H-pyrazol-5-yl]-3-(2,3-difluorophenyl)urea]
IC50 [2]: 250 nM
IC50 (KDR kinase [3]; [8]): 3500 nM
IC50 (B-Raf(V599E) kinase [5]): 2050 nM

CC(C)(C)c1cc(NC(=O)Nc2cccc(Oc3cccnc3)c2)n(-c2ccc3ncccc3c2)n1 [Example 55, 1-(3-t-butyl-1-(quinolin-6-yl)-1H-pyrazol-5-yl)-3-(3-(pyridin-3-yloxy)phenyl)urea]
IC50 (B-Raf(V599E) kinase [1]): 5.4 nM
IC50 [2]: 130 nM
IC50 (KDR kinase [3]; [8]): 4 nM
IC50 (Abl kinase [4]; [9]): 3.5 nM

NC(=O)C1CCc2ccc(-n3nc(C4CCCC4)cc3NC(=O)Nc3cccc(Cl)c3Cl)cc21 (stereo not drawn) [Example 305, 1-(1-(3-carbamoyl-2,3-dihydro-1H-inden-5-yl)-3-cyclopentyl-1H-pyrazol-5-yl)-3-(2,3-dichlorophenyl)urea]
IC50 [2]: 19 nM
IC50 (B-Raf(V599E) kinase [5]): 788 nM

NC(=O)Cc1cccc(-c2ccc(C(F)(F)F)cc2NC(=O)Nc2ccc(-c3cccc4c3CNC4=O)cc2)c1 [Example 33, [1,1′-biphenyl]-2′-(3-(4-(1-oxoisoindolin-4-yl)phenyl)ureido)-4′-(trifluoromethyl)-3-acetic acid amide]
IC50 [2]: 300 nM
IC50 (KDR kinase [3]; [8]): 14 nM
IC50 (Abl kinase [4]; [9]): 250 nM

CC(C)(C)c1cc(NC(=O)Nc2cc(F)cc(F)c2F)n(-c2cc(CC(N)=O)c3ccccc3c2)n1 [Example 85, 1-(1-(4-(2-amino-2-oxoethyl)naphthalen-2-yl)-3-t-butyl-1H-pyrazol-5-yl)-3-(2,3,5-trifluorophenyl)urea]
IC50 (B-Raf(V599E) kinase [5]): 219 nM
IC50 (Abl kinase [6]): 33 nM

CC(C)(C)c1cc(NC(=O)Nc2cc(F)c(F)cc2F)n(-c2cccc(-c3cccnc3)c2)n1 [Example 275, 1-(3-t-butyl-1-(3-(pyridin-3-yl)phenyl)-1H-pyrazol-5-yl)-3-(2,4,5-trifluorophenyl)urea]
IC50 (B-Raf(V599E) kinase [5]): 832 nM

CC(C)(C)c1cc(NC(=O)Nc2cccc(Oc3cccnc3)c2)n(-c2ccc3[nH]ccc3c2)n1 [Example 116, 1-(3-t-butyl-1-(1H-indol-5-yl)-1H-pyrazol-5-yl)-3-(3-(pyridin-3-yloxy)phenyl)urea]
IC50 (B-Raf(V599E) kinase [1]): 5.9 nM
IC50 (KDR kinase [3]; [8]): 5 nM
IC50 (Abl kinase [4]; [9]): 6.6 nM

CC(C)(C)c1cc(NC(=O)Nc2cccc(Cl)c2Cl)n(-c2ccc3[nH]ccc3c2)n1 [Example 115, 1-(3-t-butyl-1-(1H-indol-5-yl)-1H-pyrazol-5-yl)-3-(2,3-dichlorophenyl)urea]
IC50 [2]: 490 nM
IC50 (KDR kinase [3]; [8]): 810 nM
IC50 (B-Raf(V599E) kinase [5]): 979 nM
IC50 (Abl kinase [6]): 170 nM

CC(C)(C)c1cc(NC(=O)Nc2cccc(Oc3cccnc3)c2)n(-c2cc(CN)c3ccccc3c2)n1 [Example 72, 1-(1-(4-(aminomethyl)naphthalen-2-yl)-3-t-butyl-1H-pyrazol-5-yl)-3-(3-(pyridin-3-yloxy)phenyl)urea]
IC50 (B-Raf(V599E) kinase [1]): 4.4 nM
IC50 (KDR kinase [3]; [8]): 8.5 nM
IC50 (Abl kinase [4]; [9]): 2 nM

CC(C)(C)c1cc(NC(=O)Nc2cccc(Oc3cccnc3)c2)n(-c2ccc3c(c2)CCNC3)n1 [Example 141, 1-(3-t-butyl-1-(1,2,3,4-tetrahydro-isoquinolin-6-yl)-1H-pyrazol-5-yl)-3-(3-(pyridin-3-yloxy)phenyl)urea]
IC50 (B-Raf(V599E) kinase [1]): 7.5 nM
IC50 [2]: 730 nM
IC50 (KDR kinase [3]; [8]): 8.5 nM
IC50 (Abl kinase [4]): 1.5 nM

CC(C)(C)c1cc(NC(=O)Nc2cccc(Cl)c2Cl)n(-c2cccc(-c3cn[nH]c3)c2)n1 [Example 50, 1-(1-(3-(1H-pyrazol-4-yl)phenyl)-3-t-butyl-1H-pyrazol-5-yl)-3-(2,3-dichlorophenyl)urea]
IC50 [2]: 29 nM
IC50 (B-Raf(V599E) kinase [5]): 168 nM
IC50 (KDR kinase [7]): 52 nM
IC50 (Abl kinase [6]): 380 nM

CNC(=O)C1NCCc2cc(-n3nc(C(C)(C)C)cc3NC(=O)Nc3cccc(Oc4cccnc4)c3)ccc21 (stereo not drawn) [Example 180, 1-(3-t-butyl-1-(1-(methylcarbamoyl)-1,2,3,4-tetrahydroisoquinolin-6-yl)-1H-pyrazol-5-yl)-3-(3-(pyridin-3-yloxy)phenyl)urea]
IC50 (B-Raf(V599E) kinase [1]): 11 nM
IC50 [2]: 65 nM
IC50 (KDR kinase [3]; [8]): 7.8 nM
IC50 (Abl kinase [4]; [9]): 9 nM

CC(C)(C)c1cc(NC(=O)Nc2cccc(Cl)c2Cl)n(-c2cccc(-c3n[nH]c(=O)o3)c2)n1 [Example 278, 1-(3-t-butyl-1-(3-(5-oxo-4,5-dihydro-1,3,4-oxadiazol-2-yl)phenyl)-1H-pyrazol-5-yl)-3-(2,3-dichlorophenyl)urea]
IC50 (B-Raf(V599E) kinase [5]): 153 nM

COc1cccc(-n2nc(C(C)(C)C)cc2NC(=O)Nc2ccccc2F)c1 [Example 235, 1-[3-t-butyl-1-(3-methoxy-phenyl)-1H-pyrazol-5-yl]-3-(2-fluorophenyl)urea]
IC50 [2]: 120 nM
IC50 (KDR kinase [3]; [8]): 3500 nM
IC50 (B-Raf(V599E) kinase [5]): 1040 nM

CNC(=O)C1Cc2cc(-n3nc(C(C)(C)C)cc3NC(=O)Nc3cccc(Oc4cccnc4)c3)ccc2CN1 (stereo not drawn) [Example 190, 1-(3-t-butyl-1-(3-(methylcarbamoyl)-1,2,3,4-tetrahydroisoquinolin-6-yl)-1H-pyrazol-5-yl)-3-(3-(pyridin-3-yloxy)phenyl)urea]
IC50 [2]: 78 nM
IC50 (KDR kinase [3]; [8]): 8.1 nM
IC50 (Abl kinase [4]; [9]): 4 nM

CC(C)(C)c1cc(NC(=O)Nc2cccc(Cl)c2Cl)n(-c2ccc3c(c2)CCNC3)n1 [Example 138, 1-(3-t-butyl-1-(1,2,3,4-tetrahydroisoquinolin-6-yl)-1H-pyrazol-5-yl)-3-(2,3-dichlorophenyl)urea]
IC50 (B-Raf(V599E) kinase [1]): 3.2 nM
IC50 [2]: 140 nM
IC50 (Abl kinase [4]; [9]): 100 nM
IC50 (KDR kinase [7]): 300 nM

CC(C)(C)c1cc(NC(=O)Nc2cccc(Oc3cccnc3)c2)n(-c2ccc3c(c2)CCN3)n1 [Example 119, 1-(3-t-butyl-1-(indolin-5-yl)-1H-pyrazol-5-yl)-3-(3-(pyridin-3-yloxy)phenyl)urea]
IC50 (B-Raf(V599E) kinase [1]): 9.1 nM
IC50 [2]: 60 nM
IC50 (Abl kinase [4]; [9]): 12 nM
IC50 (KDR kinase [7]): 18 nM

CC(C)(C)c1cc(NC(=O)Nc2cccc(Oc3cccnc3)c2)n(-c2ccc3[nH]c(=O)ccc3c2)n1 [Example 156, 1-(3-t-butyl-1-(2-oxo-1,2-dihydroquinolin-6-yl)-1H-pyrazol-5-yl)-3-(3-(pyridin-3-yloxy)phenyl)urea]
IC50 (B-Raf(V599E) kinase [1]): 4.1 nM
IC50 (KDR kinase [3]; [8]): 3.2 nM
IC50 (Abl kinase [4]; [9]): 5 nM

CC(C)(C)c1cc(NC(=O)Nc2ccc(-c3cccc4c3CNC4=O)cc2)n(-c2ccc3c(c2)CCNC3)n1 [Example 151, 1-(3-t-butyl-1-(1,2,3,4-tetrahydroisoquinolin-6-yl)-1H-pyrazol-5-yl)-3-(4-(1-oxoisoindolin-4-yl)phenyl)urea hydrochloride]
IC50 (KDR kinase [3]): 3.5 nM
IC50 (Abl kinase [4]): 8 nM

CC(C)(C)c1cc(NC(=O)Nc2ccc(F)c(F)c2F)n(-c2cc(CC(=O)NCC(O)CO)c3ccccc3c2)n1 (stereo not drawn) [Example 96, 1-(3-t-butyl-1-(4-(2-(2,3-dihydroxypropyl-amino)-2-oxoethyl)naphthalen-2-yl)-1H-pyrazol-5-yl)-3-(2,3,4-trifluorophenyl)urea]
IC50 [2]: 48 nM
IC50 (B-Raf(V599E) kinase [5]): 378 nM
IC50 (Abl kinase [6]): 100 nM
